pIC50: −log10 of the molar value.

For assay [1], the system named is Aorta rings without endothelium. Put plainly: NO donor activity in vitro: relaxation of noradrenaline-contracted aorta rings. Format: cell-based. Conditions: stable contraction induced by noradrenaline (0.1-0.3 μM), read-out: IC50 (dose that inhibits the maximum effect by 50%), relaxing effect. As to the method:
Aorta rings without endothelium are used. After a first contraction induced by 60 mM KCl to characterise the sensitivity of the ring, and washing, a stable contraction is induced by noradrenaline (0.1-0.3 μM) in the presence or absence of a guanylate cyclase inhibitor, ODQ (10 μM). A cumulative concentration series is applied and the activity of the product under test is calculated by an IC50 (dose that inhibits the maximum effect by 50%).

In assay [2] the target is T1, Angiotensin 1-Converting Enzyme (Rattus norvegicus, UniProt P47820).
T1 construct: from tissue; host or cells: whole living rat (in vivo; endogenous enzyme)
T1 sequence (P47820 36-1313): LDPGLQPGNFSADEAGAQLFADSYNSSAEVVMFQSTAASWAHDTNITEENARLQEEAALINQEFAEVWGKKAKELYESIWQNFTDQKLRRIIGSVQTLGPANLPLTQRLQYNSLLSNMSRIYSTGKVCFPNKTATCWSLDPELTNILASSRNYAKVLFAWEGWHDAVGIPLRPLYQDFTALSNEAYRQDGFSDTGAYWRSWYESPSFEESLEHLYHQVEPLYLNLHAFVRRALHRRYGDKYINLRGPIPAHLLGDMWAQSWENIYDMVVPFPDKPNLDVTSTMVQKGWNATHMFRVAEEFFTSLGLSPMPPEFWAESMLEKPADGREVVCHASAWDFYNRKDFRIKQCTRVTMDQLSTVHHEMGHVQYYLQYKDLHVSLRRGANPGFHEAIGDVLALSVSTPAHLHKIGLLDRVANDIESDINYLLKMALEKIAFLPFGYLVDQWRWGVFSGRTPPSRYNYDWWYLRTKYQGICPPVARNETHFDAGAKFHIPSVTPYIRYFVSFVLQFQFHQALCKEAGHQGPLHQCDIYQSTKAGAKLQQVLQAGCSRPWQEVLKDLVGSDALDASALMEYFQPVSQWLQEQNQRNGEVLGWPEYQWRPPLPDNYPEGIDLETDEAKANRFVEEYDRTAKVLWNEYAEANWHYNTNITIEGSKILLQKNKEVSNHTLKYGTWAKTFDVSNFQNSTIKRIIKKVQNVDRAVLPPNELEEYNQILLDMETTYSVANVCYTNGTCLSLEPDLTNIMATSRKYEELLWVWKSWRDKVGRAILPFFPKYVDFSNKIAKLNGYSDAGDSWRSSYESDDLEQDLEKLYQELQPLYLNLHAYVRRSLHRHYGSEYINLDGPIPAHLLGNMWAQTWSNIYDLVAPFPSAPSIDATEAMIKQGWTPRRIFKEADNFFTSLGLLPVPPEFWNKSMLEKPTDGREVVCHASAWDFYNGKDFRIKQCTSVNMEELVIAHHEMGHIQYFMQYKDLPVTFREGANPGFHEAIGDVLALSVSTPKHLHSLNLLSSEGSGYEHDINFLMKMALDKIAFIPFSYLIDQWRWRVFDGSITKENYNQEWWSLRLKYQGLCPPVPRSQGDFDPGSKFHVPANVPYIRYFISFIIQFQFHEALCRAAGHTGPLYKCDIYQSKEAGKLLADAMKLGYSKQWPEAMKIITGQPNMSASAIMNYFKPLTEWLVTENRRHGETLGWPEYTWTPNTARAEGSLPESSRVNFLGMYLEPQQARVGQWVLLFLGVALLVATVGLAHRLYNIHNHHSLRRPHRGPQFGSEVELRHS
Put plainly: Activity inhibiting angiotensin 1-converting enzyme in vivo: hypertensive response to angiotensin I in anaesthetised rats. The following applies: dose of 0.1 mg/kg, given 60 minutes prior to anaesthesia, angiotensin I i.v. 1.5 μg/kg. As to the method:
Rats are anaesthetised with pentobarbital and placed under artificial respiration, and the average arterial pressure is measured by a catheter that has been placed in the femoral artery and is connected to a pressure sensor. The vagus nerves are divided into sections and mecamilamine (sympathetic ganglion blocker) is injected i.v. at 1.5 mg/kg. After stabilisation, angiotensin I is injected i.v. at 1.5 μg/kg.
The maximum hypertensive response to angiotensin I is measured in rats that, 60 minutes prior to anaesthesia, have received by the oral route either Senegal gum alone (control group), or the compound under test in Senegal gum. The inhibitory effect is determined as a percentage from the response to angiotensin I compared with the control group.

As for “(2S)-2-[(3-{[5-Oxido-4-(phenylsulphonyl)-1,2,5-oxadiazol-3-yl]-oxy}-propionyl)-amino]-succinic Acid-(2S,3aS,7aS)-1-[(2S)-2-{[(1S)-1-(ethoxycarbonyl)-butyl]-amino}-propionyl]-octahydro-1H-indole-2-carboxylic Acid (1:1) [Example 1]”, the negative logarithm of the IC50 (pIC50) in assay [1] was 7.32. The “angiotensin I inhibition (inhibition of maximum hypertensive response to angiotensin I compared with control group)” value in assay [2] was determined as 85%.

Take “(2S,3aS,7aS)-1-[(2S)-2-{[(1S)-1-(Ethoxycarbonyl)-butyl]-amino}-propionyl]-octahydro-1H-indole-2-carboxylic acid-{[(3-{[5-oxido-4-(phenylsulphonyl)-1,2,5-oxadiazol-3-yl]-oxy}-propionyl)-amino]-methyl}-phosphonic acid (1:1) [Example 7]”: the negative-log IC50 (pIC50) in assay [1] is 7.33. In assay [2], the “angiotensin I inhibition (inhibition of maximum hypertensive response to angiotensin I compared with control group)” value is 88%.

The term pIC50 denotes −log10 of the IC50, conventionally taken in molar units.

(Values after US7981920B2, “Addition salts of angiotensin-converting enzyme inhibitors with no donor acids, a process for their preparation and pharmaceutical compositions containing them” (Les Laboratoires Servier, priority 2007, dated 2011).)
